Measurements: patent US9446024B2, “Formulations for the treatment of vaginal disorders” (Mission Pharmacal Company, priority 2013, dated 2016)

Assays:
Test in all cases: MIC determination, agar dilution
Format in all cases: cell-based
Lactobacillus crispatus = details: non-reference strain
Lactobacillus gasseri = details: each identified strain
Lactobacillus iners = details: each identified strain
Lactobacillus jensenii = details: each identified strain
Lactobacillus vaginalis = details: Limosilactobacillus vaginalis; each identified strain
Mobiluncus curtisii = details: each identified strain

- MIC (Lactobacillus gasseri): > 150 µg/mL
- MIC (Lactobacillus iners): > 150 µg/mL
- MIC (Lactobacillus jensenii): > 150 µg/mL
- MIC (Lactobacillus vaginalis): > 150 µg/mL
- MIC (Mobiluncus curtisii): > 150 µg/mL
Compound: CCS(=O)(=O)CCn1c([N+](=O)[O-])cnc1C [tinidazole]
- growth inhibition at the highest concentration tested (Lactobacillus crispatus): unaffected
